Measurements from PMC11089505, “Structural Elucidation and Antiviral Activity of Covalent Cathepsin L Inhibitors” (Journal of Medicinal Chemistry, 2024).
“And” between values parts separate entries of the source, which are not always exact repeats. Equal entries are not always repeated. Where two headings read alike, the source gives them in different places. Peptide text beside a SMILES is read from it.

Columns and labels:
CatL [1] = conditions: cited from earlier work; for IC50: Table S1, SI reference list
SARS-CoV-2 Mpro = SARS-CoV-2 Mpro (Severe acute respiratory syndrome coronavirus 2, UniProt P0DTD1); format: binding; conditions: 2:1 compound to protein
CatL [2] = biological target: T1, CatL (Homo sapiens, UniProt P07711, T223A); assay: NanoDSF, thermal stability of CatL; format: binding; conditions: for 2:1, Tm average (CatL): 2:1 compound to protein; for 20:1, Tm average (CatL): 20:1 compound to protein
T1 construct: made in house; host or cells: Komagataella pastoris strain GS115

[3] = tested on: SARS-CoV-2-GFP in Vero E6 cells; assay: microbe, parasite or virus in culture; format: cell-based
CatL [4] = biological target: T1, CatL; assay: CatL inhibition assay (Ki), substrate Z-RR-AMC; format: biochemical; conditions: read-out: Residual activity (Vi/V0)
Method: (§1) Experiments were performed in a solution of 50 mM sodium acetate, pH 4.0, 50 mM NaCl, 0.1% PEG 6000, and 5 mM DTT. Distinct assays with epoxide inhibitors at pH 6.0 were performed in 50 mM sodium phosphate buffer, 50 mM NaCl, 5 mM DTT, 0.1% PEG 6000, adjusted to pH 6.0.
(§2) M1000 pro plate reader (Tecan), the fluorescent peptide substrate Z-RR-AMC, and excitation and emission wavelengths of 370 and 460 nm, respectively.
(§3) At first, the inhibitor concentration span was optimized for each inhibitor and the assay buffer. For this initial screening, CatL (5 nM) was mixed with different concentrations of inhibitors (1 nM–50 μM) to determine the range of their inhibition. […] Reaction data were fitted to the […] in GraphPad Prism 9 software: Y = bottom + (top – bottom)/(1 + 10^∧((log IC50 – X) × HillSlope)); X is the log of dose or concentration, Y is the response (fluorescence signal), decreasing as X increases, top and bottom are the plateaus in the same units as Y, log IC50 same log units as X, HillSlope is the slope factor or called the Hill slope.

CatL [5] = biological target: T1, CatL; assay: CatL inactivation assay comparing epoxides at pH 6 and pH 4; format: biochemical
Method: as §1, §2, §3
Figure S7. Inactivation of CatL.
(1 picture or pasted object on this page, not shown here)

[6] = Cell viability assay (CellTiter-Blue); conditions: African green monkey
[7] = Severe acute respiratory syndrome coronavirus 2, Vero C1008, 24 h, read-out: EC50 (24 h)
[8] = Severe acute respiratory syndrome coronavirus 2, Vero C1008, 24 h, read-out: EC50 (after 24 h)
[9] = Severe acute respiratory syndrome coronavirus 2, Vero C1008, 48 h, read-out: EC50 (after 48 h)

T1 sequence (P07711 114-333 T223A): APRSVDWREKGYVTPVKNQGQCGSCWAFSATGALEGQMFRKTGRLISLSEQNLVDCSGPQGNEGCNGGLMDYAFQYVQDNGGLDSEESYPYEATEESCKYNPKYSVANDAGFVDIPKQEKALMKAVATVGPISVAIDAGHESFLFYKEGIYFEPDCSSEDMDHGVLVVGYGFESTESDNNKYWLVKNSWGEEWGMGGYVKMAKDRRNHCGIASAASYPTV

Q: With `CSCCC(C=O)NC(=O)C(CC(C)C)NC(=O)C(CC(C)C)NC(C)=O` (stereo not drawn) [CI-II] (Ac-Leu-Leu-Met-aldehyde; configuration not given here) as the molecule, how does the Ki (CatL [1]; Sasaki et al., read-out: Ki) read?
A: The Ki was 0.6 nM.

Q: What does the source list for `CC(C)C[C@@H](C=O)NC(=O)[C@@H](NS(=O)(=O)c1ccc(F)cc1)C(C)C` [CI-VI, 2-[(4-Fluorophenyl)sulfonylamino]-3-methyl-N-(4-methyl-1-oxopentan-2-yl)butanamide]?
A: 2:1, Tm average (Mpro) (SARS-CoV-2 Mpro): 54.5 °C; IC50 (CatL [1]): 1.6 nM; ΔTm [K] for CatL, 2:1 ratio (CatL [2]): 15.2 ± 0.4 K; 2:1, Tm average (CatL) (CatL [2]): 78.3 °C; 20:1, Tm average (CatL) (CatL [2]): 81.4 °C; ΔTm (for CatL), 2:1 compound to protein mixing ratio (CatL [2]; pH 5): 15,2 ± 0,4 °C and 15.2 °C; ΔTm (for CatL), 20:1 compound to protein mixing ratio (CatL [2]; pH 5): 18,3 ± 0,1 °C and 18.3 °C; EC50 [3, 7]: 37.7 nM; EC50 [3, 8]: 37.7 nM; EC50 [3, 9]: 1330 nM

Q: For `CC[C@H](C)[C@H](NS(=O)(=O)c1cccc2ccccc12)C(=O)N[C@H](C=O)Cc1c[nH]c2ccccc12` [CLI-IV, 1-Naphthalenesulfonyl-Ile-Trp-aldehyde], which “2:1, Tm average (Mpro)” value (SARS-CoV-2 Mpro) is on record?
A: Its value is 54.6 °C.

Q: What about the IC50 (CatL [1]) of the same molecule?
A: Its IC50 is 1.9 nM.

Q: And the EC50 [3, 7]?
A: The EC50 was 7.3 nM.

Q: And the EC50 [3, 8]?
A: The EC50 was 7.26 nM.

Q: What about the EC50 ([3]; Severe acute respiratory syndrome coronavirus 2, Vero C1008, 48 h, read-out: EC50 (48 h)) of the same molecule?
A: The EC50 was less than 500 nM.

Q: What about the EC50 [3, 9] of the same molecule?
A: The EC50 was 411 nM.

Q: What about the EC50 ([3]; read-out: EC50 (24 h)) of the same molecule?
A: The EC50 was less than 10 nM.

Q: What about the remaining activity at 0.00028 µM (CatL [4]; CLI-IV 0.280 nM) of the same molecule?
A: The remaining activity at 0.00028 µM was 92.4%.

Q: And the remaining activity at 0.0004 µM (CatL [4]; CLI-IV 0.400 nM)?
A: Its remaining activity at 0.0004 µM is 94.2%.

Q: What about the remaining activity at 0.00058 µM (CatL [4]; CLI-IV 0.580 nM) of the same molecule?
A: Its remaining activity at 0.00058 µM is 89.3%.

Q: What about the remaining activity at 0.00082 µM (CatL [4]; CLI-IV 0.820 nM) of the same molecule?
A: The remaining activity at 0.00082 µM was 92.1%.

Q: And the remaining activity at 0.00168 µM (CatL [4]; CLI-IV 1.680 nM)?
A: Its remaining activity at 0.00168 µM is 78.4%.

Q: And the remaining activity at 0.0024 µM (CatL [4]; CLI-IV 2.400 nM)?
A: Its remaining activity at 0.0024 µM is 60.1%.

Q: And the remaining activity at 0.00343 µM (CatL [4]; CLI-IV 3.430 nM)?
A: The remaining activity at 0.00343 µM was 40.4%.

Q: What about the remaining activity at 0.007 µM (CatL [4]; CLI-IV 7.000 nM) of the same molecule?
A: Its remaining activity at 0.007 µM is 11%.

Q: What about the remaining activity at 0.01 µM (CatL [4]; CLI-IV 10.000 nM) of the same molecule?
A: Its remaining activity at 0.01 µM is 5.5%.

Q: For `CN(C)C(=O)C(Cc1ccccc1)NC(=O)[C@H]1O[C@@H]1C(=O)NCCc1ccccn1` (stereo partly drawn) [CLIK148, N-(L-3-trans-(2-pyridin-2-yl-ethylcarbamoyl)-oxirane-2-carbonyl)-L-Phe-dimethylamide], which “2:1, Tm average (Mpro)” value (SARS-CoV-2 Mpro) is on record?
A: Its value is 54.8 °C.

Q: What about the “Inactivation Rate” value (CatL [5]; CLIK148, pH 4, 0.44 µM (440 nM)) of the same molecule?
A: The value was 0.0004006 per second and 0.0003231 per second and 0.0004659 per second.

Q: And the “Inactivation Rate” value (CatL [5]; CLIK148, pH 4, 0.99 µM (990 nM))?
A: The value was 0.0009097 per second and 0.0007894 per second and 0.0009283 per second.

Q: What about the “Inactivation Rate” value (CatL [5]; CLIK148, pH 4, 1.48 µM (1480 nM)) of the same molecule?
A: The value was 0.00137 per second and 0.001226 per second and 0.001313 per second.

Q: And the “Inactivation Rate” value (CatL [5]; CLIK148, pH 4, 2.22 µM (2220 nM))?
A: Its value is 0.001929 per second and 0.00189 per second and 0.001923 per second.

Q: What about the “Inactivation Rate” value (CatL [5]; CLIK148, pH 4, 3.33 µM (3330 nM)) of the same molecule?
A: The value was 0.00288 per second and 0.002823 per second and 0.002796 per second.

Q: What about the “Inactivation Rate” value (CatL [5]; CLIK148, pH 4, 5.00 µM (5000 nM)) of the same molecule?
A: Its value is 0.004395 per second and 0.004358 per second and 0.004463 per second.

Q: And the “Inactivation Rate” value (CatL [5]; CLIK148, pH 6, 0.44 µM (440 nM))?
A: Its value is 0.000984 per second and 0.001005 per second and 0.00104 per second.

Q: And the “Inactivation Rate” value (CatL [5]; CLIK148, pH 6, 0.66 µM (660 nM))?
A: The value was 0.001629 per second and 0.001484 per second and 0.001519 per second.

Q: What about the “Inactivation Rate” value (CatL [5]; CLIK148, pH 6, 0.99 µM (990 nM)) of the same molecule?
A: The value was 0.002031 per second and 0.002049 per second and 0.002115 per second.

Q: And the “Inactivation Rate” value (CatL [5]; CLIK148, pH 6, 1.48 µM (1480 nM))?
A: Its value is 0.002988 per second and 0.003179 per second and 0.003258 per second.

Q: And the “Inactivation Rate” value (CatL [5]; CLIK148, pH 6, 2.22 µM (2220 nM))?
A: Its value is 0.004844 per second and 0.004638 per second and 0.004732 per second.

Q: And the “Inactivation Rate” value (CatL [5]; CLIK148, pH 6, 3.33 µM (3330 nM))?
A: The value was 0.00752 per second and 0.006254 per second and 0.007241 per second.

Q: And the “Inactivation Rate” value (CatL [5]; CLIK148, pH 6, 5.00 µM (5000 nM))?
A: The value was 0.01516 per second and 0.01256 per second and 0.01191 per second.

Q: What about the “ΔTm (for CatL), 2:1 compound to protein mixing ratio” value (CatL [2]; 5 µM CatL, pH 5.0, 2% DMSO, 2:1) of the same molecule?
A: The value was 13,8 ± 0,1 °C and 13.8 °C.

Q: What about the “ΔTm (for CatL), 20:1 compound to protein mixing ratio” value (CatL [2]; 5 µM CatL, pH 5.0, 2% DMSO, 20:1) of the same molecule?
A: The value was 13,9 ± 0,2 °C and 13.9 °C.

Q: What about the “2:1, Tm average (CatL)” value (CatL [2]) of the same molecule?
A: The value was 76.9 °C.

Q: What about the “20:1, Tm average (CatL)” value (CatL [2]) of the same molecule?
A: The value was 77 °C.

Q: What about the “ΔTm [K] for CatL, 2:1 ratio” value (CatL [2]; Table S1, 2:1 ratio) of the same molecule?
A: Its value is 13.8 ± 0.1 K.

Q: What about the EC50 [3, 8] of the same molecule?
A: Its EC50 is 282 nM.

Q: And the EC50 [3, 9]?
A: The EC50 was 2780 nM.

Q: What about the viability at 48 h, 1e-05 µM [6] of the same molecule?
A: Its viability at 48 h, 1e-05 µM is 99.3%.

Q: What about the viability at 48 h, 0.0001 µM [6] of the same molecule?
A: Its viability at 48 h, 0.0001 µM is 100%.

Q: What about the viability at 48 h, 0.001 µM [6] of the same molecule?
A: The viability at 48 h, 0.001 µM was 98%.

Q: What about the viability at 48 h, 0.01 µM [6] of the same molecule?
A: Its viability at 48 h, 0.01 µM is 101%.

Q: What about the viability at 48 h, 0.1 µM [6] of the same molecule?
A: The viability at 48 h, 0.1 µM was 98.3%.

Q: And the viability at 48 h, 1 µM [6]?
A: The viability at 48 h, 1 µM was 104%.

Q: And the viability at 48 h, 10 µM [6]?
A: The viability at 48 h, 10 µM was 110%.
